From PubChem BioAssay (NCI)
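Exposure lasted 48 hours, with cells grown in 96-well plates and compounds tested at five concentrations. Abbreviation: GI50, concentration required for 50% inhibition of growth. TGI: total growth inhibition.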

Key:
Assay in all cases: DTP human tumour cell line panel, 48 h
MALME-3M melanoma = test system: MALME-3M melanoma
SW-620 colon = test system: SW-620 colon
U251 CNS = test system: U251 CNS
HCT-15 colon = test system: HCT-15 colon
SK-MEL-2 melanoma = test system: SK-MEL-2 melanoma
K-562 leukemia = test system: K-562 leukemia
LOX IMVI melanoma = test system: LOX IMVI melanoma
HS 578T breast = test system: HS 578T breast
MDA-MB-231 breast = test system: MDA-MB-231 breast
DU-145 prostate = test system: DU-145 prostate

SMILES | TGI (MALME-3M melanoma) | TGI (SW-620 colon) | TGI (U251 CNS) | TGI (HCT-15 colon) | TGI (SK-MEL-2 melanoma) | TGI (K-562 leukemia) | TGI (LOX IMVI melanoma) | GI50 (MALME-3M melanoma) | GI50 (SW-620 colon) | GI50 (HS 578T breast) | TGI (HS 578T breast) | GI50 (U251 CNS) | GI50 (HCT-15 colon) | GI50 (SK-MEL-2 melanoma) | GI50 (K-562 leukemia) | GI50 (MDA-MB-231 breast) | TGI (MDA-MB-231 breast) | GI50 (LOX IMVI melanoma) | GI50 (DU-145 prostate) | TGI (DU-145 prostate)
O=C(CC1=Nc2nnc(-c3nnc4n3C(=O)C(CC(=O)C3CC3)=N4)n2C1=O)C1CC1 | > 100 µM | > 100 µM | > 100 µM | > 100 µM | > 100 µM | > 100 µM | > 100 µM | – | – | – | – | – | – | – | – | – | – | – | – | –
COc1cc(/C=C2\C(=O)N(C)c3ccccc32)cc(OC)c1OC | > 100 µM | > 100 µM | 41.7 µM | 85.5 µM | 45.8 µM | > 100 µM | 26.7 µM | 82.7 µM | 13.4 µM | 27.4 µM | > 100 µM | 7.49 µM | 10.3 µM | 14.3 µM | 5.02 µM | 14.2 µM | 68.4 µM | 11.1 µM | – | –
COc1ccc(Cc2nc3cc(OC)c(OC)cc3c(=O)[nH]2)cc1 | 30.3 µM | > 63.5 µM | > 100 µM | > 100 µM | – | > 100 µM | > 100 µM | 9.53 µM | 3.32 µM | 9.98 µM | 99.2 µM | 10.5 µM | 3.57 µM | – | 34.3 µM | 9.83 µM | > 100 µM | 10.9 µM | 9.38 µM | > 67 µM
OCC(O)C(O)C(O)C(O)c1nn[nH]n1 (centres undefined) | > 100 µM | > 100 µM | > 100 µM | > 100 µM | > 100 µM | > 100 µM | > 100 µM | – | – | – | – | – | – | – | – | – | – | – | – | –
O=C1CCS/C(=N/S(=O)(=O)c2ccc(N3N=C4c5ccccc5CC4C3c3cccs3)cc2)N1Cc1ccccc1 (centres undefined) | – | 84.6 µM | 32.1 µM | 31.7 µM | > 100 µM | > 100 µM | 27.2 µM | – | 24 µM | 23.5 µM | 67.2 µM | 14.4 µM | 15.9 µM | 28 µM | > 100 µM | 21.5 µM | 53.7 µM | 13.6 µM | 21 µM | 52.6 µM
NNC(=O)N/N=C1\CN(c2ccc(Cl)cc2Cl)C(=O)C(=O)C1c1nc2ccccc2o1 (centres undefined) | > 100 µM | > 100 µM | > 100 µM | – | > 100 µM | > 100 µM | – | – | – | – | – | – | – | – | – | – | – | – | – | –
COc1ccc(C(=O)O/N=C2/CCCCC2CN(C)C)cc1 (centres undefined) | > 100 µM | > 100 µM | > 100 µM | > 100 µM | > 100 µM | > 100 µM | > 100 µM | – | – | – | – | – | – | – | – | – | – | – | – | –
COC(=O)C(=O)C(C(=O)C(=O)Nc1ccc(C)c(C)c1)c1nc2ccc([N+](=O)[O-])cc2[nH]c1=O (centres undefined) | > 100 µM | > 100 µM | > 100 µM | > 100 µM | > 100 µM | > 100 µM | > 100 µM | – | – | – | > 100 µM | – | – | – | – | – | > 100 µM | – | – | –
COc1cc(CCc2ccc(OC(C)=O)cc2)cc(OC)c1OC | > 100 µM | > 100 µM | > 100 µM | > 100 µM | – | > 100 µM | > 100 µM | – | – | – | – | – | – | – | – | – | – | – | – | –
COc1cc2cc3c(c(O)c2c(O)c1-c1c(OC)cc2cc4c(c(O)c2c1O)C(=O)O[C@H](C)C4)C(=O)O[C@H](C)C3 | – | > 100 µM | 48.1 µM | 82.1 µM | > 100 µM | > 100 µM | 44.6 µM | – | 77.1 µM | – | – | 19.6 µM | 25.6 µM | 50.7 µM | > 100 µM | 16.2 µM | 42 µM | 18 µM | 15.9 µM | 31.2 µM
O=C(/C(=C/c1ccc(O)cc1)c1ccccc1)c1ccccc1 | 37.1 µM | 32 µM | 29.7 µM | 31.9 µM | 24.1 µM | 44.4 µM | 25.9 µM | – | – | – | – | – | – | – | – | – | – | – | – | –
COCC1N=C(c2cc(OC)c(OC)c(OC)c2-c2cc3c(cc2[C@H](C)O)OCO3)O[C@H]1c1ccccc1 (some centres undefined) | – | > 100 µM | > 100 µM | > 100 µM | > 100 µM | > 10 µM | > 100 µM | – | – | – | – | – | – | – | – | – | – | – | – | –
c1cncc(C2ONC3=NCCN32)c1 (centres undefined) | 91.4 µM | > 100 µM | 64.5 µM | 54.7 µM | > 100 µM | > 100 µM | – | 5.17 µM | 35.5 µM | – | – | 16.5 µM | 11.5 µM | 68.8 µM | 35.6 µM | 32.3 µM | > 100 µM | – | 15.8 µM | > 100 µM
Nc1nc(=S)[nH]c(C(=O)Nc2nccs2)c1-c1ccccc1 | > 100 µM | > 100 µM | > 100 µM | > 100 µM | > 100 µM | > 100 µM | > 100 µM | – | – | – | – | – | – | – | – | – | – | – | – | –
O=c1[nH]c2ccc([N+](=O)[O-])cc2nc1/C(=N/Nc1ccccc1)C(O)c1ccco1 (centres undefined) | > 100 µM | > 100 µM | > 100 µM | 63.5 µM | > 100 µM | > 100 µM | > 100 µM | – | – | – | – | – | – | – | – | – | – | – | – | –
Nc1ccc(C(=O)/C=C/c2ccccc2O)cc1 | > 100 µM | > 100 µM | > 100 µM | > 100 µM | > 100 µM | > 100 µM | > 100 µM | – | – | – | – | – | – | – | – | – | – | – | – | –
[Cl-].[Gd+3].[O-]/N=C(\c1ccccc1)c1ccccn1.[O-]/N=C(\c1ccccc1)c1ccccn1.[O-]/N=C(\c1ccccc1)c1ccccn1 | > 100 µM | > 100 µM | > 100 µM | > 100 µM | 78.5 µM | > 100 µM | 76.5 µM | 95.8 µM | 41.7 µM | – | – | 68.9 µM | 48.4 µM | 27.1 µM | 65 µM | – | – | 28.5 µM | – | –
O=C(c1ccccc1)C(Br)C(Br)c1ccccc1 (centres undefined) | 4.31 µM | 3.28 µM | 20.9 µM | 9.76 µM | 24.6 µM | – | 3.41 µM | 2.02 µM | 1.69 µM | – | – | 8.15 µM | 2.96 µM | 10.7 µM | – | 14 µM | 29 µM | 1.82 µM | 3.08 µM | 9.63 µM
C=C1CC/C=C(\C)CC[C@H](C(=C)C)[C@@H](O)/C=C(/CO)CCC1O (some centres undefined) | – | > 100 µM | > 100 µM | > 100 µM | > 100 µM | 69.7 µM | > 100 µM | – | 72.8 µM | 42.5 µM | > 100 µM | 85.2 µM | > 100 µM | > 100 µM | 24.5 µM | > 100 µM | > 100 µM | 50.4 µM | 93.2 µM | > 100 µM
